This test has as its target T1, human PAD4 (Homo sapiens, UniProt Q9UM07).
T1 construct: human PAD4 (NM_012387), A2-P663, was PCR amplified; His-SUMO (N, cleaved yes); made in house; host or cells: E. coli BL21(DE3)
In words: In vitro PAD4 BAEE biochemical assay. The conditions noted are these: BAEE substrate 3 mM, 5 nM PAD4, 2 mM calcium chloride; geometric mean of multiple experiments. An outline of the steps: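 Assay was run at 25 °C using 3 mM BAEE and 5 nM human PAD4 after a 30 min compound preincubation; ammonia produced over 2 h was quantified by OPA-derived fluorescence. Full inhibition was defined by 50 µM BB-Cl-Amidine, and IC50 came from variable-slope nonlinear regression.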
T1 sequence (Q9UM07 2-663): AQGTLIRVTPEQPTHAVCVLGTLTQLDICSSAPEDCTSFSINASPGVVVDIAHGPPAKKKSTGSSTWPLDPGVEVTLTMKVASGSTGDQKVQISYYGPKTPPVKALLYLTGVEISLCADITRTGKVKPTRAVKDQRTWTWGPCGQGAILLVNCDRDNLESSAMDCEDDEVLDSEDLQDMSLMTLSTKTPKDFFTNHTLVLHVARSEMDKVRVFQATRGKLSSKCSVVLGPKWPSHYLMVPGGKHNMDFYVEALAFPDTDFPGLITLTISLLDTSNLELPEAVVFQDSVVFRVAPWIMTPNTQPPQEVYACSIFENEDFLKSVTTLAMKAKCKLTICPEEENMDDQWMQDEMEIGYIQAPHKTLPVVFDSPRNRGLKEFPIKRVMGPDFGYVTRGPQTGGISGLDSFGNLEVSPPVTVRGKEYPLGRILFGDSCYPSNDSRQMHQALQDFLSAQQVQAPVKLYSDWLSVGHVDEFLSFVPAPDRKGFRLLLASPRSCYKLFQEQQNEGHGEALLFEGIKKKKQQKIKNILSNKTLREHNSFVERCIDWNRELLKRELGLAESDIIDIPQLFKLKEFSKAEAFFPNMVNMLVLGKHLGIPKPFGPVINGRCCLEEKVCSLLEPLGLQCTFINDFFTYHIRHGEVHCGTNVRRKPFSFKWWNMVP
For the compound `C[C@H]1NC(=O)c2ccc(Cl)nc2CCCCCn2c(-c3nc4cc(C(=O)N5C[C@H](N)[C@@H]6CC[C@H]5C6)cc(Cl)c4n3C3CC3)cc3ccc1nc32` [Example 812, (2~{R})-17-[5-[(1~{S},4~{R}, 5~{R})-4-amino-2-azabicyclo [3.2.1]octane-2-carbonyl]-7-chloro-1-cyclopropyl-benzimidazol-2-yl]-8-chloro-2-methyl-3,9,16,22-tetrazatetracyclo[14.5.2.0^ {5,10}.0^{19,23}]tricosa-1(21),5(10),6,8,17,19,22-heptaen-4-one], the IC50 came to 31 nM.

In the case of `C[C@H]1NC(=O)c2ccc(C3CC3)nc2CCCCCn2c(-c3nc4cc(C(=O)N5C[C@H](N)[C@@H]6CC[C@H]5C6)cc(F)c4n3C3CC3)cc3ccc1nc32` [Example 813, (2˜{R})-17-[5-[(1˜{S},4˜{R},5˜{R})-4-amino-2-azabicyclo[3.2.1]octane-2-carbonyl]-1-cyclopropyl-7-fluoro-benzimidazol-2-yl]-8-cyclopropyl-2-methyl-3,9,16,22-tetrazatetracyclo[14.5.2.0^{5,10}.0^{19,23}]tricosa-1(21),5(10),6,8,17,19,22-heptaen-4-one], the IC50 turned out to be 26 nM.

Turning to `C[C@H]1NC(=O)c2ccc(Cl)nc2CCCC(F)(F)Cn2c(-c3nc4cc(C(=O)N5C[C@H](N)[C@@H]6CC[C@H]5C6)cc(F)c4n3C3CC3)cc3ccc1nc32` [Example 814, (2~{R})-17-[5-[(1~{S), 4~{R},5~{R})-4-amino-2-azabicyclo[3.2.1]octane-2-carbonyl]-1-cyclopropyl-7-fluoro-benzimidazol-2-yl]-8-chloro-14,14-difluoro-2-methyl-3,9,16,22-tetrazatetracyclo[14.5.2.0^ {5,10).0^{19,23}]tricosa-1(21),5(10),6,8,17,19,22-heptaen-4-one], the IC50 turned out to be 38 nM.

For the compound `COc1cc(C(=O)N2C[C@H](N)[C@@H]3CC[C@H]2C3)cc2nc(-c3cc4ccc5nc4n3CCCCC[C@]3(F)C[C@H]3C(=O)N[C@@H]5C)c(C)n12` [Example 815, (2~{R},5~{S},7~{S})-14-[7-[(1~{S},4~{R},5~{R})-4-amino-2-azabicyclo[3.2.1]octane-2-carbonyl]-5-methoxy-3-methyl-imidazo[1,2-a]pyridin-2-yl]-7-fluoro-2-methyl-3,13,19-triazatetracyclo [11.5.2.0^{5,7}.0^{16,20}] icosa-1(18),14,16,19-tetraen-4-one], the IC50 was 26 nM.

On to `COc1cc(C(=O)N2C[C@H](N)[C@@H]3CC[C@H]2C3)cc2nc(-c3cc4ccc5nc4n3CCCCC[C@]3(F)C[C@H]3C(=O)N[C@@H]5C)n(C3CC3)c12` [Example 816, (2~{R},5~{S},7~{S})-14-[5-[(1~{S},4~{R},5~{R})-4-amino-2-azabicyclo[3.2.1]octane-2-carbonyl]-1-cyclopropyl-7-methoxy-benzimidazol-2-yl]-7-fluoro-2-methyl-3,13,19-triazatetracyclo[11.5.2.0^ {5,7}.0^{16,20}]icosa-1 (18),14,16,19-tetraen-4-one], for which the IC50 amounted to 19 nM.

Regarding `COCCn1c(-c2cc3ccc4nc3n2CCCCC[C@@H]2C[C@H]2C(=O)N[C@@H]4C)nc2cc(C(=O)N3C[C@H](N)[C@@H]4CC[C@H]3C4)cc(OC)c21` [Example 817, (2~{R},5~{R},7~{R})-14-[5-[(1~{S},4~{R},5~{R})-4-amino-2-[3.2.1]octane-2-carbonyl]-7-methoxy-1-(2-methoxyethyl)benzimidazol-2-yl]-2-methyl-3,13,19-triazatetracyclo[11.5.2.0^ {5,7}.0^{16,20}]icosa-1(18),14,16,19-tetraen-4-one], the IC50 is 13 nM.

As to `COc1cc(C(=O)N2C[C@H](N)[C@@H]3CC[C@H]2C3)cc2nc(-c3cc4ccc5nc4n3CCCCCc3cc(Cl)ncc3C(=O)N[C@@H]5C)n(C3CC3)c12` [Example 818, (2~{R})-17-[5-[(1~{S},4~{R}, 5~{R})-4-amino-2-azabicyclo[3.2.1]octane-2-carbonyl]-1-cyclopropyl-7-methoxy-benzimidazol-2-yl]-8-chloro-2-methyl-3,7,16,22-tetrazatetracyclo[14.5.2.0^ {5,10).0^{19,23}]tricosa-1(21),5(10),6,8,17,19,22-heptaen-4-one], the IC50 is 12 nM.

Consider `COc1cc(C(=O)N2C[C@H](N)[C@@H]3CC[C@H]2C3)cc2nc(-c3cc4ccc5nc4n3CCCCCc3nc(C(F)F)ccc3C(=O)N[C@@H]5C)n(C3CC3)c12` [Example 819, (2~{R})-17-[5-[(1~{S},4~{R}, 5~{R})-4-amino-2-azabicyclo [3.2.1]octane-2-carbonyl]-1-cyclopropyl-7-methoxy-benzimidazol-2-yl]-8-(difluoromethyl)-2-methyl-3,9,16,22-tetrazatetracyclo[14.5.2.0^ {5,10}.0^{19,23}] tricosa-1(21),5(10),6,8,17, 19,22-heptaen-4-one], for which the IC50 was 10 nM.

Turning to `C[C@H]1NC(=O)c2ccc(C#Cc3ccccc3)nc2CCCCCn2c(-c3nc4cc(C(=O)N5C[C@H](N)[C@@H]6CC[C@H]5C6)cc(F)c4n3C3CC3)cc3ccc1nc32` [Example 820, (2˜{R})-17-[5-[(1˜{S},4˜{R},5˜{R})-4-amino-2-azabicyclo[3.2.1]octane-2-carbonyl]-1-cyclopropyl-7-fluoro-benzimidazol-2-yl]-2-methyl-8-(2-phenylethynyl)-3,9,16,22-tetrazatetracyclo[14.5.2.0^{5,10}.0^{19,23}]tricosa-1(21),5(10),6,8,17,19,22-heptaen-4-one], the IC50 is 168 nM.

For `COc1cc(C(=O)N2CC[C@@H](OC)[C@@H](N)C2)cc2nc(-c3cc4ccc5nc4n3CC(F)(F)CCCCC3(CC(F)(F)C3)C(=O)N[C@@H]5C)n(C)c12` [Example 821, (11~{R})-17-[5-[(3~{S),4~ {R})-3-amino-4-methoxy-piperidine-1-carbonyl]-7-methoxy-1-methyl-benzimidazol-2-yl]-1′,1′,3,3-tetrafluoro-11-methyl-spiro[1,10,19-triazatricyclo[10.5.2.0^ {15,18}]nonadeca-12 (19),13,15(18),16-tetraene-8,3′-cyclobutane]-9-one], the IC50 stood at 102 nM.

As to `COc1cc(C(=O)N2CC[C@@H](OC(F)F)[C@@H](N)C2)cc2nc(-c3cc4ccc5nc4n3CC(F)(F)CCCCC3(CC(F)(F)C3)C(=O)N[C@@H]5C)n(C)c12` [Example 822, (11~{R})-17-[5-[(3~{S},4~ {R})-3-amino-4-(difluoromethoxy)piperidine-1-carbonyl]-7-methoxy-1-methyl-benzimidazol-2-yl]-1′,1′,3,3-tetrafluoro-11-methyl-spiro [1,10,19-triazatricyclo [10.5.2.0^{15,18}]nonadeca-12(19),13,15(18),16-tetraene-8,3′-cyclobutane]-9-one], the IC50 was 205 nM.

Turning to `COc1cc(C(=O)N2CC[C@@H](OC)[C@@H](N)C2)cc2nc(-c3cc4ccc5nc4n3CC(F)(F)CCCCC3(CC3)C(=O)N[C@@H]5C)n(C)c12` [Example 823, (11~{R})-17-[5-[(3~ {S},4~{R})-3-amino-4-methoxy-piperidine-1-carbonyl]-7-methoxy-1-methyl-benzimidazol-2-yl]-3,3-difluoro-11-methyl-spiro[1,10,19-triazatricyclo[10.5.2.0^ {15,18}]nonadeca-12 (19),13,15(18),16-tetraene-8,1′-cyclopropane]-9-one], the IC50 came out at 146 nM.

Consider `COc1cc(C(=O)N2CC[C@@H](OC(F)F)[C@@H](N)C2)cc2nc(-c3cc4ccc5nc4n3CCCCCc3nc4ccccc4nc3C(=O)N[C@@H]5C)n(C)c12` [Example 824, (2~{R})-21-[5-[(3~{S},4~{R})-3-amino-4-(difluoromethoxy)piperidine-1-carbonyl]-7-methoxy-1-methyl-benzimidazol-2-yl]-2-methyl-3,6,13,20,26-pentazapentacyclo [18.5.2.0^{5,14).0^{7, 12}.0^{23,27}]heptacosa-1(26),5,7(12),8,10,13,21, 23(27),24-nonaen-4-one], for which the IC50 is 43 nM.

Regarding `COc1cc(C(=O)N2CC[C@@H](OC)[C@@H](N)C2)cc2nc(-c3cc4ccc5nc4n3CCCCCc3ccnc(F)c3C(=O)N[C@@H]5C)n(C)c12` [Example 825, (2~{R})-17-[5-[(3~{S},4~ {R})-3-amino-4-methoxy-piperidine-1-carbonyl]-7-methoxy-1-methyl-benzimidazol-2-yl]-6-fluoro-2-methyl-3,7,16,22-tetrazatetracyclo[14.5.2.0^ {5,10}.0^{19,23}]tricosa-1(21),5,7,9,17,19,22-heptaen-4-one], the IC50 is 38 nM.

In the case of `C[C@H]1NC(=O)[C@@H]2C[C@H]2CCCCCn2c(-c3nc4cc(C(=O)N[C@H]5CNCC[C@@H]5F)c(F)cc4n3[C@H]3C[C@H]3F)cc3ccc1nc32` [Example 826, 6-fluoro-1-[(1~{S},2~{R})-2-fluorocyclopropyl]-~{N}-[(3~{S),4~{S})-4-fluoro-3-piperidyl]-2-[(2~{R},5~{R},7~ {R})-2-methyl-4-oxo-3,13,19-triazatetracyclo [11.5.2.0^{5,7}.0^{16,20}]icosa-1(19),14,16(20),17-tetraen-14-yl]benzimidazole-5-carboxamide], the IC50 is 31 nM.

For the compound `CO[C@@H]1CCN(C(=O)c2cc3nc(-c4cc5ccc6nc5n4CCCCC[C@@H]4C[C@H]4C(=O)N[C@@H]6C)n([C@H]4C[C@H]4F)c3cc2F)C[C@@H]1N` [Example 827, (2~{R},5~{R},7~{R})-14-[5-[(3~{S},4~{R})-3-amino-4-methoxy-piperidine-1-carbonyl]-6-fluoro-1-[(1~{S},2~{R})-2-fluorocyclopropyl]benzimidazol-2-yl]-2-methyl-3,13,19-triazatetracyclo[11.5.2.0^ {5,7}.0^{16,20}]icosa-1(19),14,16(20),17-tetraen-4-one], the IC50 amounted to 36 nM.

For the origin of these results see patent US11976083B2, “Inhibitors of peptidylarginine deiminases” (Gilead Sciences, Inc., priority 2020, dated 2024).
